Results: the NIST ThermoML archive (doi:10.1021/je100300s)

Experiments:
[1] = 101 kPa, Liquid
[2] = refractive index (Na D-line) (dimensionless); conditions: 101.33 kPa, Liquid, Standard Abbe refractometry
[3] = xn = mol fraction of the nth substance listed; conditions: 101 kPa, Liquid, x2 = 0
[4] = refractive index (Na D-line) (dimensionless); xn = mol fraction of the nth substance listed; conditions: 101 kPa, Liquid, Standard Abbe refractometry, x2 = 0

CC(O)CN (centres undefined) [1-amino-2-propanol]
Conditions	mass density, [1] [kg/m3]	refractive index, [2]	viscosity, [1] [mPa·s]
293.15 K	–	1.448	–
298.15 K	956.51	1.44609	26.68
303.15 K	952.52	1.44409	20.31
308.15 K	–	1.44211	–
313.15 K	944.42	1.44009	12.51
318.15 K	–	1.43817	–
323.15 K	936.19	1.43631	7.543
328.15 K	–	1.43405	–
333.15 K	927.84	1.43208	5.22
343.15 K	919.37	–	3.77

O [water] + CC(O)CN
Conditions	mass density, [3] [kg/m3]	refractive index, [4]	viscosity, [3] [mPa·s]
293.15 K	–	1.33298	–
298.15 K	–	1.33249	0.882
303.15 K	–	1.33193	0.804
308.15 K	–	1.33136	–
313.15 K	–	1.33067	0.658
318.15 K	–	1.3299	–
323.15 K	988.03	1.32906	0.551
328.15 K	–	1.32818	–
333.15 K	983.19	1.32726	0.47
343.15 K	977.75	–	0.407
